The target in test [1] is Matrix metalloproteinase-9 (Homo sapiens, UniProt P14780). The experiment in a line: Inhibition of matrix metalloprotease-9.
For test [2], the target named is 72 kDa type IV collagenase (Homo sapiens, UniProt P08253). As to the kind of experiment: Inhibition of matrix metalloprotease-2.
Sequence of 72 kDa type IV collagenase (P08253 whole entry): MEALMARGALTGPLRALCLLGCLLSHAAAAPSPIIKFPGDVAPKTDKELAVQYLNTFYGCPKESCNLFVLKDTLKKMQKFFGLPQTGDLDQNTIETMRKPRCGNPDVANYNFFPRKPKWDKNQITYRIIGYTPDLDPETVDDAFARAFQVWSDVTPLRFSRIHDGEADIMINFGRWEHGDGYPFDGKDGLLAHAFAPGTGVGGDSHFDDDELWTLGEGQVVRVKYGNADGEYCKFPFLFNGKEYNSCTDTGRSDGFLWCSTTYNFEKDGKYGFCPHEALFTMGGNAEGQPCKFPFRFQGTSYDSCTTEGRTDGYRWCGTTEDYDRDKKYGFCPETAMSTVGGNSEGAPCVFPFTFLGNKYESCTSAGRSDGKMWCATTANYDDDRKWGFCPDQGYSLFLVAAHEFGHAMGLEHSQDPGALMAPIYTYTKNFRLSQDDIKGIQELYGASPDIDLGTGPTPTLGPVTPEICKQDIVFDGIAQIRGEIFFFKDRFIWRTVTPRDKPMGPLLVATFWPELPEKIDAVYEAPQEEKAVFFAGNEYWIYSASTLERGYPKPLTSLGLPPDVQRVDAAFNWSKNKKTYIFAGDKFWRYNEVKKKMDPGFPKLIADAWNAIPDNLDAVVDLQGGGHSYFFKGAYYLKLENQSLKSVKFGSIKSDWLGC

Sequence of Matrix metalloproteinase-9 (P14780 whole entry): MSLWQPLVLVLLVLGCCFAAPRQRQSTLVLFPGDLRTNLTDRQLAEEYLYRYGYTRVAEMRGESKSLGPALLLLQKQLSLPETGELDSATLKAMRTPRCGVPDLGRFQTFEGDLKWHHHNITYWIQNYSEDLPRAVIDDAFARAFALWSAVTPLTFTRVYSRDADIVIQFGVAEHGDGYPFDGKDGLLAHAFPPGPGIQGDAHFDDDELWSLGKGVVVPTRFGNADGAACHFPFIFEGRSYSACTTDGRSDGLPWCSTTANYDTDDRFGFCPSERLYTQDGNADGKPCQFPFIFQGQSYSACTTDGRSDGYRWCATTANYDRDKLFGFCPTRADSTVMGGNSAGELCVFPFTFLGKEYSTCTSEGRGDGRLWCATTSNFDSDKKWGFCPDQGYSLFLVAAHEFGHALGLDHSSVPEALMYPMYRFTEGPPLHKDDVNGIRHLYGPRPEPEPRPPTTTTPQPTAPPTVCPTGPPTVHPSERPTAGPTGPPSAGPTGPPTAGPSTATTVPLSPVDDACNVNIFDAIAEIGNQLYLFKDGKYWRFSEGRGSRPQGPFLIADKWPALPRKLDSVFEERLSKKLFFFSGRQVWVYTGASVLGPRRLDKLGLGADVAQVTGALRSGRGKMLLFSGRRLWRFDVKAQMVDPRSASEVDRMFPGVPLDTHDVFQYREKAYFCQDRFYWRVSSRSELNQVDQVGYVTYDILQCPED

As to `COc1ccc(-c2cnc(-c3ccc(S(=O)(=O)NC(C(=O)NO)C(C)C)cc3)o2)cc1` (centres undefined), the half-inhibitory concentration (IC50) in test [1] and in test [2] was 1 µM each time.

Regarding `CNC(=O)[C@@H](CC(=O)[C@H](CC(C)C)[C@H](CSc1ccccc1)C(=O)NO)Cc1ccccc1`, the IC50 in test [1] and in test [2] was 0.2 µM throughout.

For the compound `COc1ccc(-c2cnc(-c3ccc(S(=O)(=O)NC(CCC(=O)O)C(=O)O)cc3)s2)cc1` (centres undefined), the IC50 in test [1] and in test [2] was 0.05 µM each time.

As for `COc1ccc(-c2cnc(-c3ccc(S(=O)(=O)NC(C(=O)NO)C(C)C)cc3)s2)cc1` (centres undefined), the figures for the IC50 in test [1] and in test [2] were 0.9 µM and 0.4 µM, respectively.

As for `COc1ccc(-c2cnc(-c3ccc(S(=O)(=O)NC(C(=O)CCC(=O)O)C(C)C)cc3)o2)cc1` (centres undefined), the 50% inhibitory concentration (IC50) in test [1] and in test [2] was 10 µM each time.

In the case of `COc1ccc(-c2cnc(-c3ccc(S(=O)(=O)NC(C(=O)O)C(C)C)cc3)o2)cc1` (centres undefined), the half-maximal inhibitory concentration (IC50) in test [1] and in test [2] was 1 µM throughout.

In the case of `COc1ccc(-c2cnc(-c3ccc(S(=O)(=O)NC(C(=O)O)C(C)C)cc3)s2)cc1` (centres undefined), the IC50 (commonly the point on the concentration scale where inhibition reaches its midpoint) in test [1] is 0.7 µM; in test [2], 0.2 µM.

(Values after ChEMBL document CHEMBL1137962, “New heteroarylbenzenesulphonamides as matrix metalloproteinase inhibitors” (Bioorg Med Chem Lett, 2004).)
